# Laboratory results reported in US20240316059A1, “PEPTIDE DRUG CONJUGATES” (Oncopeptides AB, priority 2021, published 2024).
# Where two headings read alike, the source gives them in different places.
# What was measured:
# MM.1S cells [1] = test: Cellular retention/efflux: intracellular and extracellular concentrations by LC-MS/MS; assay type: in vitro ADME, human; conditions: metabolites measured after treatment with the parent Example compound
# Protocol: Methods: MMA1S cells at 2×10^6 cells/mL were seeded at 250 μL per well in a 96-well plate. Cells were incubated in the presence of a test compound for 5, 15, and 60 min before pelleting cells by centrifugation at +4° C. for 5 min. Cell media was immediately harvested to a second plate and stored at −80° C. until further analysis. Pelleted cells were washed once with ice cold PBS before storage at −80° C. until further analysis.
# Cells were lysed and protein in the media were precipitated using acetonitrile dimethylformamide, 9:1 containing internal standard. Samples were centrifuged and the supernatant was analyzed with LC-MS/MS (ACQUITY UPLC-Xevo TQ-S micro) to determine compound concentration.
# Example compound 1, bendamustine and melphalan were used as test compounds.
# Method: Method described in Biological example 3.
# Example compounds 1, 2, 3, 4, 6, 7 and 10 were investigated. Intracellular metabolites are formed from all compounds tested. The compound used for cell treatment was metabolised to the ester-hydrolysed compound (here called Metabolite A) and to the amide-hydrolysed compound (called Metabolite B). The example compound structures and the structures of the two metabolites for the respective compounds were as shown in Table 4. The Metabolites B formed under the conditions tested were compounds with structure as Examples 17 and 18: […]
# [2] = tested on: DNA prepared from MM.1S cells (nuclear HPRT and mitochondrial DNA); test: Direct DNA damage, PCR amplification of treated DNA (HPRT and mtDNA primers); assay type: biochemical, human; conditions: 0.25 μM compound, 30 minutes, 37° C., 1 μg DNA
# Protocol: Method: DNA was prepared from MM.1S cells by QIAGEN genomic tip 20/G according to protocol described in Furda et al., Methods Mol Biol, 2012. 1 μg of DNA was treated with 0.25 μM compound for 30 minutes at 37° C. DMSO was used as control treatment. 20 ng of the treated DNA was PCR amplified using Phusion Hot Start II High Fidelity PCR Master Mix (Thermo Scientific) and primers directed to either HPRT or primers directed to mitochondrial DNA (mtDNA) was used, generating 10.4 or 8.9 kb fragments, respectively. The PCR reactions were separated on a 1% agarose gel and visualized by ChemiDoc™ MP Imaging System (BioRad). Example compounds 1, 2 and 38 were investigated, as were compounds 18 and 20, which are metabolites of compound 1. They were compared with bendamustine, melphalan and DMSO control. The results for compounds 1, 2, 18 and 20 with the HPRT primers are shown in FIG. 4(A); the results with the mtDNA primers are shown in FIG. 4(B).
# MM.1S cells [3] = test: In vitro cytotoxic potency in MM.1S cell viability assay (CellTiter-Glo); assay type: cell-based, human; conditions: Homo sapiens, MM1.S, 72 h
# Protocol: Methods: MM.1S Cells were cultivated in RPMI medium 1640 (IX) supplemented with 10 μg/μL penicillin/streptomycin, 10% heat inactivated FBS, 0.1 mM Sodium Pyruvate, 1×MEM NEAA (ThermoFisher) and 1 mM HEPES. Cells were grown to reach log phase before being exposed to the test compounds.
# (§1) Test compounds (Example compounds 1 to 36, 38 to 41 and 45 to 48) and comparative compounds (bendamustine, busulfan, melphalan, chlorambucil and 4-hydroperoxy cyclophosphamide) were dissolved in 100% DMSO and added to a 384 assay plate. Additional DMSO was added to maintain the same final DMSO concentration (0.2%) in all wells. 25 μL cell suspension with a concentration of 100000 cells/mL was added to each well. The cells were cultured in a CO2 incubator at 37° C. for 72 h. Plates were equilibrated to room temperature for 30 minutes before adding 20 μL CellTiter-Glo® 2.0 (Promega) reagent to all wells. The plate was then allowed to stabilize for 20 minutes before recording the luminescence (emission filter 700 nm) in an Envision plate reader.
# (§2) All cells were cultivated in RPMI medium 1640 (IX). All media was supplemented with 10 μg/μl penicillin/streptomycin, 10% heat inactivated FBS, 0.1 mM Sodium Pyruvate, 1×MEM NEAA (ThermoFisher) and 1 mM HEPES. The DERL-2 cells had higher FBS (20%) and 40 ng/mL IL-2 was added. hPBMCs were thawed and allowed to acclimatise overnight and then stimulated with 10 μg/mL PHA-M and 40 ng/mL IL-2 for 4 hours before being exposed to test compounds. All cells, except for hPBMCs, were grown to reach log phase before being exposed to the test compounds.
# as §1, with “compounds” for “compounds (Example compounds 1 to 36, 38 to 41 and 45 to 48) and comparative compounds (bendamustine, busulfan, melphalan, chlorambucil and 4-hydroperoxy cyclophosphamide)”, “(Em” for “(emission”
# RPMI-8226 = test: In vitro cytotoxicity, RPMI-8226 (Multiple Myeloma, resistant); assay type: cell-based; conditions: Homo sapiens, RPMI-8226; 72 h, CellTiter-Glo 2.0; read-out: Cytotoxicity IC50, RPMI-8226
# Protocol: as §2
# as §1, with “compounds” for “compounds (Example compounds 1 to 36, 38 to 41 and 45 to 48) and comparative compounds (bendamustine, busulfan, melphalan, chlorambucil and 4-hydroperoxy cyclophosphamide)”, “(Em” for “(emission”
# Toledo = test: In vitro cytotoxicity, Toledo (Diffuse Large B Cell Lymphoma); assay type: cell-based; conditions: Homo sapiens, 72 h, CellTiter-Glo 2.0, read-out: Cytotoxicity IC50, Toledo
# Protocol: as §2
# as §1, with “compounds” for “compounds (Example compounds 1 to 36, 38 to 41 and 45 to 48) and comparative compounds (bendamustine, busulfan, melphalan, chlorambucil and 4-hydroperoxy cyclophosphamide)”, “(Em” for “(emission”
# U937 = test: In vitro cytotoxicity, U937 (Histiocytic Lymphoma); assay type: cell-based; conditions: Homo sapiens, U-937; 72 h, CellTiter-Glo 2.0; read-out: Cytotoxicity IC50, U937
# Protocol: as §2
# as §1, with “compounds” for “compounds (Example compounds 1 to 36, 38 to 41 and 45 to 48) and comparative compounds (bendamustine, busulfan, melphalan, chlorambucil and 4-hydroperoxy cyclophosphamide)”, “(Em” for “(emission”
# DOHH-2 = test: In vitro cytotoxicity, DOHH-2 (B Cell Lymphoma); assay type: cell-based; conditions: Homo sapiens, DOHH-2; 72 h, CellTiter-Glo 2.0; read-out: Cytotoxicity IC50, DOHH-2
# Protocol: as §2
# as §1, with “compounds” for “compounds (Example compounds 1 to 36, 38 to 41 and 45 to 48) and comparative compounds (bendamustine, busulfan, melphalan, chlorambucil and 4-hydroperoxy cyclophosphamide)”, “(Em” for “(emission”
# SC-1 = test: In vitro cytotoxicity, SC-1 (B cell Lymphoma); assay type: cell-based; conditions: Homo sapiens, SC-1; 72 h, CellTiter-Glo 2.0; read-out: Cytotoxicity IC50, SC-1
# Protocol: as §2
# as §1, with “compounds” for “compounds (Example compounds 1 to 36, 38 to 41 and 45 to 48) and comparative compounds (bendamustine, busulfan, melphalan, chlorambucil and 4-hydroperoxy cyclophosphamide)”, “(Em” for “(emission”
# SU-DHL-8 = test: In vitro cytotoxicity, SU-DHL-8 (B-cell non-Hodgkin Lymphoma); assay type: cell-based; conditions: Homo sapiens, SU-DHL-8; 72 h, CellTiter-Glo 2.0; read-out: Cytotoxicity IC50, SU-DHL-8
# Protocol: as §2
# as §1, with “compounds” for “compounds (Example compounds 1 to 36, 38 to 41 and 45 to 48) and comparative compounds (bendamustine, busulfan, melphalan, chlorambucil and 4-hydroperoxy cyclophosphamide)”, “(Em” for “(emission”
# HG-3 = test: In vitro cytotoxicity, HG-3 (Chronic Lymphocytic Leukemia); assay type: cell-based; conditions: Homo sapiens, HG-3; 72 h, CellTiter-Glo 2.0; read-out: Cytotoxicity IC50, HG-3
# Protocol: as §2
# as §1, with “compounds” for “compounds (Example compounds 1 to 36, 38 to 41 and 45 to 48) and comparative compounds (bendamustine, busulfan, melphalan, chlorambucil and 4-hydroperoxy cyclophosphamide)”, “(Em” for “(emission”
# SK-MM-1 = test: In vitro cytotoxicity, SK-MM-1 (Plasma Cell Leukemia); assay type: cell-based; conditions: Homo sapiens; 72 h, CellTiter-Glo 2.0; read-out: Cytotoxicity IC50, SK-MM-1
# Protocol: as §2
# as §1, with “compounds” for “compounds (Example compounds 1 to 36, 38 to 41 and 45 to 48) and comparative compounds (bendamustine, busulfan, melphalan, chlorambucil and 4-hydroperoxy cyclophosphamide)”, “(Em” for “(emission”
smiles,measurement,setting,value
"Cn1c(CC[C@H](N)C(=O)O)nc2cc(N(CCCl)CCCl)ccc21 [Example 18, (S)-2-amino-4-(5-(bis(2-chloroethyl)amino)-1-methyl-1H-benzo[d]imidazol-2-yl)butanoic acid]",Intracellular concentration (in words),"MM.1S cells [1]; MM.1S cells incubated with test compound 5, 15, 60 min",rapidly formed inside the cells
same,Extracellular concentration (in words),"MM.1S cells [1]; media of MM.1S cells incubated with test compound 5, 15, 60 min",low levels of it are found in the media outside the cells
same,DNA damage on nuclear and mitochondrial DNA (PCR band),[2],effectively damaged both nuclear and mitochondrial DNA
same,IC50,MM.1S cells [3]; read-out: MM.1S IC50,20200 nM
"CC(C)C[C@H](NC(=O)[C@@H](N)CCc1nc2cc(N(CCCl)CCCl)ccc2n1C)C(=O)O [Example 20, (2S)-2-[[(2S)-2-amino-4-[5-[bis(2-chloroethyl)amino]-1-methyl-benzimidazol-2-yl]butanoyl]amino]-4-methyl-pentanoic acid]",DNA damage on nuclear and mitochondrial DNA (PCR band),[2],"DNA damaging effect but to a lesser degree compared to Example compounds 1, 2 and 18"
same,IC50,MM.1S cells [3]; read-out: MM.1S IC50,5750 nM
"CNC(=O)[C@H](CC(C)C)NC(=O)[C@@H](N)CCc1nc2cc(N(CCCl)CCCl)ccc2n1C [Example 31, (2S)-2-[[(2S)-2-amino-4-[5-[bis(2-chloroethyl)amino]-1-methyl-benzimidazol-2-yl]butanoyl]amino]-N,4-dimethyl-pentanamide]",IC50,MM.1S cells [3]; read-out: MM.1S IC50,181 nM
"CCOC(=O)[C@H](CC(C)C)NC(=O)[C@H](CCc1nc2cc(N(CCCl)CCCl)ccc2n1C)NC [Example 32, Ethyl (2S)-2-[[(2S)-4-[5-[bis(2-chloroethyl)amino]-1-methyl-benzimidazol-2-yl]-2-(methylamino)butanoyl]amino]-4-methyl-pentanoate]",IC50,MM.1S cells [3]; read-out: MM.1S IC50,14.3 nM
"CN[C@@H](CCc1nc2cc(N(CCCl)CCCl)ccc2n1C)C(=O)N[C@@H](CC(C)C)C(=O)O [Example 33, (2S)-2-[[(2S)-4-[5-[bis(2-chloroethyl)amino]-1-methyl-benzimidazol-2-yl]-2-(methylamino)butanoyl]amino]-4-methyl-pentanoic acid]",IC50,MM.1S cells [3]; read-out: MM.1S IC50,79900 nM
"CCOC(=O)[C@H](CC(C)C)NC(=O)[C@H](Cc1nc2cc(N(CCCl)CCCl)ccc2n1C)NC(C)=O [Example 35, Ethyl (2S)-2-[[(2S)-2-acetamido-3-[5-[bis(2-chloroethyl)amino]-1-methyl-benzimidazol-2-yl]propanoyl]amino]-4-methyl-pentanoate]",IC50,MM.1S cells [3]; read-out: MM.1S IC50,86.7 nM
"CCOC(=O)[C@H](Cc1ccc(F)cc1)NC(=O)[C@H](Cc1nc2cc(N(CCCl)CCCl)ccc2n1C)NC(C)=O [Example 36, Ethyl (2S)-2-[[(2S)-2-acetamido-3-[5-[bis(2-chloroethyl)amino]-1-methyl-benzimidazol-2-yl]propanoyl]amino]-3-(4-fluorophenyl)propanoate]",IC50,MM.1S cells [3]; read-out: MM.1S IC50,57.5 nM
"CCOC(=O)[C@@H](N)CCc1nc2cc(N(CCCl)CCCl)ccc2n1C.Cl.Cl [Example 38, Ethyl (2S)-2-amino-4-[5-[bis(2-chloroethyl)amino]-1-methyl-benzimidazol-2-yl]butanoate]",IC50,RPMI-8226,676 nM
same,IC50,Toledo,16.2 nM
same,IC50,U937,25.3 nM
same,IC50,DOHH-2,28.1 nM
same,DNA damage on nuclear and mitochondrial DNA (PCR band),[2],effectively damaged both nuclear and mitochondrial DNA
same,IC50,SC-1,77.2 nM
same,IC50,SU-DHL-8,71.4 nM
same,IC50,"MM.1S cells [3]; read-out: Cytotoxicity IC50, MM.1S",52 nM
same,IC50,MM.1S cells [3]; read-out: MM.1S IC50,52 nM
same,IC50,HG-3,49.8 nM
same,IC50,SK-MM-1,175 nM
"Cn1c(CC[C@H](N)C(=O)N[C@@H](Cc2ccc(F)cc2)C(=O)O)nc2cc(N(CCCl)CCCl)ccc21 [Example 39, (2S)-2-[[(2S)-2-Amino-4-[5-[bis(2-chloroethyl)amino]-1-methyl-benzimidazol-2-yl]butanoyl]amino]-3-(4-fluorophenyl)propanoic acid]",IC50,MM.1S cells [3]; read-out: MM.1S IC50,> 2000 nM
"CC(C)C[C@H](NC(=O)[C@@H](N)CCc1nc2cc(N(CCCl)CCCl)ccc2n1-c1ccccc1)C(=O)O [Example 40, (2S)-2-[[(2S)-2-Amino-4-[5-[bis(2-chloroethyl)amino]-1-phenyl-benzimidazol-2-yl]butanoyl]amino]-4-methyl-pentanoic acid]",IC50,MM.1S cells [3]; read-out: MM.1S IC50,7180 nM
"N[C@@H](CCc1nc2cc(N(CCCl)CCCl)ccc2n1-c1ccccc1)C(=O)O [Example 41, (2S)-2-Amino-4-[5-[bis(2-chloroethyl)amino]-1-phenyl-benzimidazol-2-yl]butanoic acid]",IC50,MM.1S cells [3]; read-out: MM.1S IC50,16500 nM
"CCOC(=O)[C@@H](CC(C)C)NC(=O)[C@@H](N)CCc1nc2cc(N(CCCl)CCCl)ccc2n1C [Example 45, Ethyl (2R)-2-[[(2S)-2-amino-4-[5-[bis(2-chloroethyl)amino]-1-methyl-benzimidazol-2-yl]butanoyl]amino]-4-methyl-pentanoate]",IC50,MM.1S cells [3]; read-out: MM.1S IC50,512 nM
"CCOC(=O)[C@H](CC(C)C)NC(=O)[C@H](N)CCc1nc2cc(N(CCCl)CCCl)ccc2n1C [Example 46, Ethyl (2S)-2-[[(2R)-2-amino-4-[5-[bis(2-chloroethyl)amino]-1-methyl-benzimidazol-2-yl]butanoyl]amino]-4-methyl-pentanoate]",IC50,MM.1S cells [3]; read-out: MM.1S IC50,59.1 nM
"CCOC(=O)[C@@H](CC(C)C)NC(=O)[C@H](N)CCc1nc2cc(N(CCCl)CCCl)ccc2n1C [Example 47, Ethyl (2R)-2-[[(2R)-2-amino-4-[5-[bis(2-chloroethyl)amino]-1-methyl-benzimidazol-2-yl]butanoyl]amino]-4-methyl-pentanoate]",IC50,MM.1S cells [3]; read-out: MM.1S IC50,1710 nM
"CCOC(=O)[C@H](CC(C)C)NC(=O)[C@@H](N)CCc1nc2cc(N(CCCl)CCCl)cnc2n1C [Example 48, Ethyl (2S)-2-[[(2S)-2-amino-4-[6-[bis(2-chloroethyl)amino]-3-methyl-imidazo[4,5-b]pyridin-2-yl]butanoyl]amino]-4-methyl-pentanoate]",IC50,MM.1S cells [3]; read-out: MM.1S IC50,205 nM
